We go through five molecules from publication PMC9695599, “N-Terminally Lipidated Sialorphin Analogs—Synthesis, Molecular Modeling, In Vitro Effect on Enkephalins Degradation by NEP and Treatment of Intestinal Inflammation in Mice” (International Journal of Molecular Sciences, 2022).

The target in data set [1] is neutral endopeptidase (NEP) (Homo sapiens, UniProt P08473). The data set is described as follows: Degradation of Met-enkephalin by NEP alone and in the presence of inhibitors. Conditions: for 1000 × k, degradation rate of Met-enkephalin incubated with NEP in the presence of inhibitor / t1/2, half-life of Met-enkephalin incubated with NEP in the presence of inhibitor: Met-enkephalin 0.0413 mM, inhibitor 0.156 mM, NEP 5.687 nM, Tris–HCl 50 mM pH 7.4, 37 °C, 0, 30, 60, 90, 120 min, RP-HPLC, mean ± SEM, triplicates. On the procedure: Determination of Met-enkephalin degradation rates was performed, as described previously. Purified enzyme NEP was purchased from Merck (Warsaw, Poland). Solutions of Met-enkephalin, NEP, and inhibitors were prepared by dissolving them in a Tris–HCl buffer (50 mM, pH 7.4). In investigated samples, the concentrations of Met-enkephalin, inhibitors, and NEP were, respectively, 0.0413 mM, 0.156 mM, and 5.687 nM. The samples consisting of NEP, Met-enkephalin, and the inhibitor were incubated over 0, 30, 60, 90, and 120 min at 37 °C in a final volume of 300 μL. The reaction was stopped with a 1 M aqueous HCl solution. In the next steps, the samples were centrifuged and the supernatants were filtered and analyzed by RP-HPLC. All measurements were performed in triplicates.

Data set [2] concerns DSS-induced colitis in mice. The experiment in a line: DSS-induced mouse model of colitis. It is filed as in vivo, mouse (male BALB/C). Conditions: for Effect on microscopic damage score / colon architecture (in words): DSS-induced colitis, peptide 1 mg/kg i.p. twice daily day 3-6, hematoxylin-eosin stained distal colon sections, day 7. The procedure: Male BALB/C mice obtained from University of Lodz, Poland, weighing 22–25 g (6–8 weeks of age), were used. The mice were kept at a constant temperature (22–23 °C) and maintained under a 12 h light/dark cycle with constant access to laboratory chow and tap water. All animal protocols were approved by the Medical University of Lodz Animal Care Committee (Protocol 2/ŁB 123/2019 and 17/ŁB 132/2019) and complied with Directive 2010/63/EU of the European Parliament and of the Council of 22 September 2010. All efforts were made to minimize animal suffering and to reduce the number of animals used.
Colonic inflammation was induced as described before. From day 0 to day 5, mice received DSS: 4% w/v and molecular weight 40,000 (PanReac AppliChem, Darmstadt, Germany) in drinking water. On days 6 and 7, the DSS solution was replaced with tap water. Control animals were given drinking water throughout the whole experiment. Animal body weight was monitored daily. Mice were sacrificed by cervical dislocation on day 7, and colonic damage was evaluated.
Treatment was administered intraperitoneally (i.p.) twice daily from day 3 to day 6 after colitis induction, 100 µL/mouse. Peptides were administered at the dose of 1 mg/kg bw. Control and DSS groups received vehicle alone (100 µL/mouse, i.p.).
On day 7 of the experiment, mice were euthanized. For total macroscopic damage score evaluation, the colon was removed immediately after cervical dislocation and weighed with fecal content. Next, the colon was opened longitudinally, and the feces were removed.
Total macroscopic damage score was calculated based on the stool consistency (0—normal, well-shaped fecal pellets; 3—diarrhea), colon epithelial damage (0–3), and colon length and weight scores, calculated as a loss of each parameter relative to the control group (0 points, ≤5% weight/length loss; 1 point, 5–14% weight/length loss; 2 points, 15–24% weight/length loss; 3 points, 25–35% weight/length loss; and 4 points, ≥35% weight/length loss). […] The presence (score = 1) or absence (score = 0) of fecal blood was also recorded. […]

Data set [3] can be described thus: Stability of peptides in human plasma. It is filed as in vitro ADME. Conditions: 37 °C, 200 µL peptide solution (1 mg/mL in PBS pH 7.42) + 50 µL human plasma, ethanol deproteinization, RP-HPLC peak area vs 0 h, at least triplicate; for Stability in human plasma relative to heterodimer of sialorphin and spinorphin, after 4 h: 4 h incubation; for Level of remaining peptide in human plasma relative to heterodimer of sialorphin and spinorphin, after 24 h: 24 h incubation. On the procedure: Compounds VII and VIII were the strongest inhibitors of NEP in vitro and were thus included in stability assays. Peptides were incubated in the human plasma at 37 °C, and their degradation was analyzed by RP HPLC. The stability of peptides VII–VIII was compared to that of a heterodimer of sialorphin and spinorphin and not sialorphin alone. In previously described stability assays of sialorphin alone, the 48% TFA solution was used to precipitate proteins before HPLC analysis. In the case of the peptides VII and VIII, we had to use ethanol instead of the TFA solution. This change was required by the fact that in the latter solution, an emergence of a degradation product that was characterized by identical retention time on HPLC as that of peptides VII and VIII occurred. Consequently, a different reference was used (heterodimer of sialorphin and spinorphin instead of sialorphin).
Plasma-stability assays were performed by applying procedure described by Sobocińska et al.. Each peptide solution was prepared by dissolving 1 mg of a peptide in 1 mL of PBS buffer (pH 7.42). The samples containing the peptide (200 µL) and freshly […] plasma (50 µL) were incubated at 37 °C. The samples were analyzed after 0, 2, 4, and 24 h. At each time interval 40 μL of the mixture was taken and deproteinized by addition of a ethanol (120 µL). The aliquots were centrifuged at 14,500 rpm for 5 min. The supernatants were filtered over Millipore Millex-GV syringe filters (Merck Life Science, Poznan, Poland) and analyzed with RP-HPLC on a Phenomenex Gemini-NX C18 5 µm column (4.6 mm × 150 mm) using the solvent system of 0.1% TFA in water (A) and 0.1% TFA in acetonitrile (B) and linear gradients of 20–80% (B) over 20 min, at a flow rate of 1.5 mL/min. To assess the stability at each time interval, the area of the peptide peak from the chromatogram was calculated and expressed as the percentage of the area of the peak recorded just after mixing a peptide with plasma (0-hour). The assay was performed at least in triplicate for each peptide.

Residues, ends and D or L forms follow the SMILES beside them.

Sequence of neutral endopeptidase (NEP) (P08473 whole entry, species assumed): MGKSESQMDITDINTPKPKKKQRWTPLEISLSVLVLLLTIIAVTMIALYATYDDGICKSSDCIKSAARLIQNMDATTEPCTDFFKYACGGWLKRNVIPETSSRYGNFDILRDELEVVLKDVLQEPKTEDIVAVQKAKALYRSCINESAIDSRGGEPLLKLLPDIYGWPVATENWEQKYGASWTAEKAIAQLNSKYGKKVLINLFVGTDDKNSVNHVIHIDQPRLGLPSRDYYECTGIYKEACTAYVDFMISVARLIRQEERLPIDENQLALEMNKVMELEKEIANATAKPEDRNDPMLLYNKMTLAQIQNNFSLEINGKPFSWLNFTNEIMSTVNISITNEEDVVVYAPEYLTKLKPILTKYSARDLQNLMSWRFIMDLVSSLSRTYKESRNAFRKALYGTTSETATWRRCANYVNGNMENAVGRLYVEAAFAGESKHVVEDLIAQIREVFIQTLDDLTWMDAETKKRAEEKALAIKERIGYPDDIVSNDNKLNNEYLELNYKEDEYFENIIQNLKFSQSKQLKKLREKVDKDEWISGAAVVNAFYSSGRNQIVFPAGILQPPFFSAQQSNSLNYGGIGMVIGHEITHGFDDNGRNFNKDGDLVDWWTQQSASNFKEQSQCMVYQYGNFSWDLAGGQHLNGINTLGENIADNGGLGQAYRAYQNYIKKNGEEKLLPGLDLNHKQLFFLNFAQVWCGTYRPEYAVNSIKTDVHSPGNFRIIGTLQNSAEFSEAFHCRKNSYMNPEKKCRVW

Turning to `CSCC[C@H](NC(=O)[C@H](Cc1ccccc1)NC(=O)CNC(=O)CNC(=O)[C@@H](N)Cc1ccc(O)cc1)C(=O)O` [Met-Enkephalin, Met-enkephalin, reference compound], the half-life at 0.0413 mM in data set [1] (isolated enzyme neprilysin, pH 7.4) turned out to be 27 ± 1 min.
As for `CCCCCCCCCCCCCCCCCC(=O)N[C@@H](CCCCN)C(=O)N[C@@H](CCCCN)C(=O)N[C@@H](CCC(N)=O)C(=O)N[C@@H](Cc1c[nH]cn1)C(=O)N[C@@H](CC(N)=O)C(=O)N1CCC[C@H]1C(=O)N[C@@H](CCCNC(=N)N)C(=O)O` [VIII] (HELM PEPTIDE1{[CCCCCCCCCCCCCCCCCC(=O)[*:2]].K.K.Q.H.N.P.R}$$$$V2.0), the “Effect on microscopic damage score / colon architecture (in words)” value in data set [2] is given as “less pronounced”. In addition, in data set [3], the “Stability in human plasma relative to heterodimer of sialorphin and spinorphin, after 4 h” value worked out at 1.4 times; the “Level of remaining peptide in human plasma relative to heterodimer of sialorphin and spinorphin, after 24 h” value was found to be 5.5 times. Moreover, in data set [1], the “1000 × k, degradation rate of Met-enkephalin incubated with NEP in the presence of inhibitor” value (“1000 × k, degradation rate … of inhibitor” below) was 0.89 ± 0.10 *** 1/min and the “t1/2, half-life of Met-enkephalin incubated with NEP in the presence of inhibitor” value (shortened to “t1/2, half-life … of inhibitor”) was determined as 724 ± 43 min.
Consider `CCCCCCCCCCCCCC(=O)N[C@@H](CCCCN)C(=O)N[C@@H](CCCCN)C(=O)N[C@@H](CCC(N)=O)C(=O)N[C@@H](Cc1c[nH]cn1)C(=O)N[C@@H](CC(N)=O)C(=O)N1CCC[C@H]1C(=O)N[C@@H](CCCNC(=N)N)C(=O)O` [VI] (HELM PEPTIDE1{[CCCCCCCCCCCCCC(=O)[*:2]].K.K.Q.H.N.P.R}$$$$V2.0), for which, in data set [1], the “1000 × k, degradation rate … of inhibitor” value was 20.06 ± 1.34 ** 1/min and the “t1/2, half-life … of inhibitor” value is 35 ± 2 min.
On to `CCCCCCCCCCCC(=O)N[C@@H](CCCCN)C(=O)N[C@@H](CCCCN)C(=O)N[C@@H](CCC(N)=O)C(=O)N[C@@H](Cc1c[nH]cn1)C(=O)N[C@@H](CC(N)=O)C(=O)N1CCC[C@H]1C(=O)N[C@@H](CCCNC(=N)N)C(=O)O` [V] (HELM PEPTIDE1{[CCCCCCCCCCCC(=O)[*:2]].K.K.Q.H.N.P.R}$$$$V2.0), for which, in data set [1], the “1000 × k, degradation rate … of inhibitor” value amounted to 23.20 ± 0.89 min⁻¹ and the “t1/2, half-life … of inhibitor” value stood at 30 ± 1 min.
Regarding `CCCCCCCCCCCCCCCC(=O)N[C@@H](CCCCN)C(=O)N[C@@H](CCCCN)C(=O)N[C@@H](CCC(N)=O)C(=O)N[C@@H](Cc1c[nH]cn1)C(=O)N[C@@H](CC(N)=O)C(=O)N1CCC[C@H]1C(=O)N[C@@H](CCCNC(=N)N)C(=O)O` [VII] (HELM PEPTIDE1{[CCCCCCCCCCCCCCCC(=O)[*:2]].K.K.Q.H.N.P.R}$$$$V2.0), the “Total macroscopic damage score” value in data set [2] (DSS 4% w/v in drinking water day 0-5, peptide 1 mg/kg i.p. twice daily day 3-6, evaluated day 7, mean ± SEM, n = 5–10, DSS-only 11.20 ± 0.60, control 0.55 ± 0.18) came to 10.20 ± 0.99. Further, the “Effect on microscopic damage score / colon architecture (in words)” value in data set [2] was “significantly improved colon architecture”. For the same molecule, in data set [3], the “Stability in human plasma relative to heterodimer of sialorphin and spinorphin, after 4 h” value was 1.4 times; the “Level of remaining peptide in human plasma relative to heterodimer of sialorphin and spinorphin, after 24 h” value was determined as 1.3 times. Also, in data set [1], the “1000 × k, degradation rate … of inhibitor” value was 3.46 ± 0.40 *** 1/min and the “t1/2, half-life … of inhibitor” value was 199 ± 2 min.

Broadly, the half-life is the time needed for the level to fall by half in the phase considered.
